Measurements taken from patent publication US5498710A, “Alkyl ether analogues of benzoporphyrin derivatives” (Health Research, Inc., priority 1994, dated 1996).
“Also recorded” adds a separate entry of the source.

Assays:
SMT-F tumor [1] = assay: In vivo antitumor (photodynamic) activity, SMT-F tumors in DBA/2 mice; design: species or system DBA/2 Ha-DD mouse; settings: for antitumor / photosensitizing activity: 1.0 mg/kg, light 3 h post i.v. injection where stated; for in vivo photosensitizing efficacy / antitumor activity compared with BPD: mice, compared with BPD (mixture of 21 and 22); for tumorcidal activity: similar doses and treatment conditions; for Tumor response (nonpalpable tumor), 1-2 d / Tumor response (nonpalpable tumor), 7 d / Tumor response (nonpalpable tumor), 30 d: 1.0 mg/kg i.v., light 3 h after injection; for Tumor response (nonpalpable tumor), 1-2 d: day 1-2; for Tumor response (nonpalpable tumor), 7 d: day 7; for Tumor response (nonpalpable tumor), 30 d: day 30
Experimental: Tumor Response and Foot Response Experiments: For tumor response experiments (see Table 3), a 1mm^3 piece of SMT-F tumor from a donor DBA/2 Ha-DD mouse was implanted subcutaneously with a trocar into the axilla of a 5-7 week old female DBA/2 Ha-DD mouse. When the tumor had grown to about 4mm diameter, mice were injected intravenously (i.v.) with photosensitizers at various doses. At various time after injection, mice were restrained in Plexiglas® holders and each tumor was illuminated with 135 J/cm^2 light from a dye laser 171 (spectra physics). The light dose rate was 75 mW/cm^2 as measured with a PTR Optics […]. The percentage of short term control (non-palpable tumors) was recorded daily. For our study 6 mice/group were used.
(§1) In vivo Biological Activity: The in vivo photosensitizing ability of all the sensitizers was compared with that of commercial BPD in DBA/2 mice bearing subcutaneously implanted SMT-F tumors, a method previously described by Dougherty et al. All photosensitizers, including commercial BPD (mixture of 21 and 22) were first dissolved in a minimum quantity of Tween 80 and then diluted with 0.9% saline, to a final concentration of 1% Tween 80.
(§2) It can be seen from Table 3 that commercial BPD was quite effective at a dose of 5.0 mg/kg, 3 h post i.v. injection (4 out of six mice were tumor free at day 30). […] However, replacement of the vinyl with a 1-hexyloxyethyl group induced a remarkable difference in photosensitizing activity.

[2] = Electronic absorption, red absorption maximum; type: physicochemical; settings: for red shift in the absorption spectra: electron-withdrawing groups on macrocycle; for strong absorption in the red: formyl-BPDs
Experimental: M.p.s were measured on a Thomas/Bristoline microscopic hot stage apparatus and were uncorrected. Silica gel 60 (70-230 and 230-400 mesh, Merck) or neutral alumina (Merck; usually Brockmann Grade III, i. e., deactivated with 6% water) were used for column chromatography. Preparative thin layer chromatography was carried out on 20×20 cm glass plates coated with Merck G 254 silica gel (1 mm thick). Analytical thin layer chromatography (TLC) was performed using merck 60 F254 silica gel (precoated sheets, 0.2 mm thick). Reactions were monitored by TLC and spectrophotometry and were carried out under nitrogen and in the dark. ^1 HNMR spectra were obtained in deuteriochloroform solution at 300 MHz using a General Electric QE300 spectrometer; chemical shifts are expressed in ppm relative to chloroform (7.258 ppm). Elemental analyses were performed at the Midwest Microlab, Ltd., Indiana, USA. Unless stated otherwise, electronic absorption spectra were measured in dichloromethane solution using a Hewlett-Packard 8450A spectrophotometer. Mass spectra were obtained at the Mass Spectrometry Facility, University of California, San Francisco and at the Department of Biophysics, Roswell Park Cancer Institute, Buffalo.

[3] = Solubility of photosensitizers; type: physicochemical; settings: Tween 80, then 0.9% saline (1% Tween 80)
Source text: as §1, §2

SMT-F tumor [4] = assay: In vivo antitumor (photodynamic) activity, SMT-F tumors in DBA/2 mice; design: species or system DBA/2 Ha-DD mouse; settings: 5.0 mg/kg i.v., light 24 h after injection

| Compound | antitumor / photosensitizing activity (SMT-F tumor [1]) | in vivo photosensitizing efficacy / antitumor activity compared with BPD (SMT-F tumor [1]) | tumorcidal activity (SMT-F tumor [1]) | other results |
| --- | --- | --- | --- | --- |
| C=CC1=C(C)c2cc3[nH]c(cc4nc(cc5[nH]c(cc1n2)C1(C)C5=CC=C(C(=O)OC)C1C(=O)OC)C(C)=C4CCC(=O)OC)c(CCC(=O)OC)c3C (centres unmarked) [Compound 41, 3-Vinyl-BPD] | activity similar to BPD | – | – | – |
| C=CC1=C(C)c2cc3[nH]c(cc4nc(cc5[nH]c(cc1n2)C1(C)C5=CC=C(C(=O)OC)C1C(=O)OC)C(C)=C4CCC(=O)OC)c(CCC(=O)OC)c3C (centres unmarked) [Compound 28, 3-Vinylbenzoporphyrin Derivative] | activity similar to BPD | – | – | – |
| COC(=O)CCC1=C(C)c2cc3[nH]c(cc4nc(cc5[nH]c(cc1n2)c(CCC(=O)OC)c5C)C(C(C)=O)=C4C)C1=CC=C(C(=O)OC)C(C(=O)OC)C13C (centres unmarked) [Compound 37, 8-Acetylbenzoporphyrin Derivative] | inactive | failed to improve their photosensitizing efficacy | – | red shift in the absorption spectra [2]: significant red shift in the absorption spectra; ease of dissolution [3]: difficult to dissolve |
| COC(=O)CCC1=C(C)c2cc3[nH]c(cc4nc(cc5[nH]c(cc1n2)c(CCC(=O)OC)c5C)C(C(C)=O)=C4C)C1=CC=C(C(=O)OC)C(C(=O)OC)C13C (centres unmarked) [Compound 23, 8-Acetylbenzoporphyrin Derivative] | inactive | failed to improve their photosensitizing efficacy | did not show any significant tumorcidal activity | red shift in the absorption spectra [2]: significant red shift in the absorption spectra; ease of dissolution [3]: difficult to dissolve |
| CCC1=C(C)c2cc3[nH]c(cc4nc(cc5[nH]c(cc1n2)C1(C)C5=CC=C(C(=O)OC)C1C(=O)OC)C(C)=C4CCC(=O)OC)c(CCC(=O)OC)c3C (centres unmarked) [Compound 33, 2-Ethylbenzoporphyrin Derivative] | – | – | did not show any significant tumorcidal activity | – |
| CCC1=C(C)c2cc3[nH]c(cc4nc(cc5[nH]c(cc1n2)c(C)c5CCC(=O)OC)C(CCC(=O)OC)=C4C)C1(C)C3=CC=C(C(=O)OC)C1C(=O)OC (centres unmarked) [Compound 25, 8-Ethylbenzoporphyrin Derivative] | – | – | did not show any significant tumorcidal activity | – |
| C=CC1=C(C)c2cc3[nH]c(cc4nc(cc5[nH]c(cc1n2)c(C)c5CCC(=O)OC)C(CCC(=O)OC)=C4C)C1(C)C3=CC=C(C(=O)OC)C1C(=O)OC (centres unmarked) [Compound 20, 8-vinylbenzoporphyrin Derivative] | activity similar to BPD | – | – | – |
| COC(=O)CCC1=C(C)c2cc3[nH]c(cc4nc(cc5[nH]c(cc1n2)c(CCC(=O)OC)c5C)C(C=O)=C4C)C1=CC=C(C(=O)OC)C(C(=O)OC)C13C (centres unmarked) [Compound 26, 8-Formylbenzoporphyrin Derivative] | – | – | did not show any significant tumorcidal activity | strong absorption in the red [2]: 696 nm |
| 3-(1-Hexyloxyethyl)benzoporphyrin Derivative [Compound 35] | active; also recorded: good antitumor activity | significantly more active than the industrially prepared benzoporphyrin derivative; also recorded: better photosensitizing efficacy than benzoporphyrin derivative monocarboxylic acid; also recorded: better anti-tumor activity than BPD-MA | – | Tumor response (nonpalpable tumor), 1-2 d (SMT-F tumor [1]): 6/6; Tumor response (nonpalpable tumor), 7 d (SMT-F tumor [1]): 6/6; Tumor response (nonpalpable tumor), 30 d (SMT-F tumor [1]): 2/6 |
| COC(=O)CCC1=C(C)c2cc3[nH]c(cc4nc(cc5[nH]c(cc1n2)c(CCC(=O)OC)c5C)C(C)=C4C(C)=O)C1(C)C3=CC=C(C(=O)OC)C1C(=O)OC (centres unmarked) [Compound 31, 3 -Acetylbenzoporphyrin Derivative] | inactive | failed to improve their photosensitizing efficacy | did not show any significant tumorcidal activity | red shift in the absorption spectra [2]: significant red shift in the absorption spectra; ease of dissolution [3]: difficult to dissolve |
| C=CC1=C(C)c2cc3[nH]c(cc4nc(cc5[nH]c(cc1n2)c(C)c5CCC(=O)OC)C(CCC(=O)OC)=C4C)C1(C)C3=CC=C(C(=O)OC)C1C(=O)OC (centres unmarked) [Compound 36, 8-Vinylbenzoporphyrin Derivative] | activity similar to BPD | – | – | – |
| 3-(1-Hexyloxyethyl)benzoporphyrin Derivative [Compound 45] | active | significantly more active than the industrially prepared benzoporphyrin derivative; also recorded: better photosensitizing efficacy than benzoporphyrin derivative monocarboxylic acid; also recorded: better anti-tumor activity than BPD-MA | – | Tumor response (nonpalpable tumor), 1-2 d (SMT-F tumor [1]): 6/6; Tumor response (nonpalpable tumor), 7 d (SMT-F tumor [1]): 4/6; Tumor response (nonpalpable tumor), 30 d (SMT-F tumor [1]): 0/6; Tumor response (nonpalpable tumor), 1-2 d (SMT-F tumor [4]; day 1-2): 6/6; Tumor response (nonpalpable tumor), 7 d (SMT-F tumor [4]; day 7): 6/6; Tumor response (nonpalpable tumor), 30 d (SMT-F tumor [4]; day 30): 0/6 |
| COC(=O)CCC1=C(C)c2cc3[nH]c(cc4nc(cc5[nH]c(cc1n2)c(CCC(=O)OC)c5C)C(C=CC(C)C1=C(C)c2cc5[nH]c(cc6nc(cc7[nH]c(cc1n2)c(C)c7CCC(=O)OC)C(CCC(=O)OC)=C6C)C1(C)C5=CC=C(C(=O)OC)C1C(=O)OC)=C4C)C1=CC=C(C(=O)OC)C(C(=O)OC)C13C (mixture of isomers) [Compound 46, Bis-Benzoporphyrin] | – | – | did not show any significant tumorcidal activity | – |
| COC(=O)CCC1=C(C)c2cc3[nH]c(cc4nc(cc5[nH]c(cc1n2)c(CCC(=O)OC)c5C)C(C)=C4C=O)C1(C)C3=CC=C(C(=O)OC)C1C(=O)OC (centres unmarked) [Compound 34, 3-Formylbenzoporphyrin Derivative] | – | – | did not show any significant tumorcidal activity | strong absorption in the red [2]: 696 nm |
| CCCCCCOC(C)C1=C(C)c2cc3[nH]c(cc4nc(cc5[nH]c(cc1n2)c(C)c5CCC(=O)OC)C(CCC(=O)OC)=C4C)C1(C)C3=CC=C(C(=O)OC)C1C(=O)OC (mixture of isomers) [Compound 27, 8-(1-Hexyloxyethyl)benzoporphyrin Derivative] | active; also recorded: good antitumor activity | significantly more active than the industrially prepared benzoporphyrin derivative; also recorded: better photosensitizing efficacy than benzoporphyrin derivative monocarboxylic acid; also recorded: better anti-tumor activity than BPD-MA | – | Tumor response (nonpalpable tumor), 1-2 d (SMT-F tumor [1]): 6/6; Tumor response (nonpalpable tumor), 7 d (SMT-F tumor [1]): 4/6; Tumor response (nonpalpable tumor), 30 d (SMT-F tumor [1]): 1/6; absorption maximum wavelength ([2]; maximum red absorption peak, Table 3): 676 nm |
